One test deals with male rabbits. Briefly: fur growth on shorn back of rabbits. The arrangement: Difference b, Average: unit not given here. It counts as in vivo. Conditions: for Grown fur length Test side a', Average: 0.2% fatty acid solution in 80% aqueous ethanol; for Difference b, Average: test side minus control side, 0.2% fatty acid solution. The protocol: Ten week old male rabbits were shorn on the back. A 0.2% fatty acid solution in 80% aqueous ethanol solution was applied, twice a day, to a half-side of the shorn portion of each rabbit for one week. As a control, a 80% aqueous ethanol solution was also applied, twice a day, to the other half-side of the shorn portion of each rabbit for one week (two week for linoleic acid). The length of the grown fur was measured.

The target of test [1] is testosterone 5α-reductase. The test is described as follows: testosterone 5α-reductase inhibitory activity (conversion of labelled testosterone to 5α-dihydrotestosterone). It is filed as biochemical, rats. To be noted: microsome from rat prostate gland cells, 25°C, 60 minutes, pH 6.6. On the procedure:
The Sa-reductase inhibitory activity was determined as follows.
Prostate gland cells of rats were crushed and a specimen of testosterone 5α-reductase was then prepared by separating microsome from the crushed liquid mixture. The conversion of the testosterone to 5α-dihydrotestosterone by the use of the above-prepared enzyme specimen was monitored by radioisotopically labelled testosterone. The reaction mixture was extracted with ethyl acetate and the extract was developed twice by silica gel thin layer chromatography (solvent system, dichloromethane: cyclohexane:acetone = 15:4:1). The amount of 5α-dihydrotestosterone were determined from the intensities of the radioactivity.
A 30 µl amount of a 0.05 M phosphate buffer (pH = 6.6), 10 µl of an enzyme specimen, 8.5 pmol of labelled testosterone, 50 nmol of a reduced form of NADP (nicotinamide adenine dinucleotide phosphate), and 10 µl of a test sample were mixed (final volume = 50 µl). The mixture was included at a temperature of 25°C for 60 minutes.
The reaction was stopped by the addition of 100 ul of ethyl acetate, and the reaction mixture was extracted by vigorous shaking. The extract was developed in the same manner as mentioned above and the intensity of the radioisotope was measured by using a scintillation counter.
The above-mentioned determination was applied to the samples having various concentrations. The 5a--reductase inhibitory activity was obtained as a inhibitory rate (%) or a 50% inhibitory concentration (^IC50).

This is an account of results in patent EP0116439A2, “Fatty acid containing hair tonic composition” (priority 1983, dated 1984).

Consider `CCCCC/C=C\C/C=C\C/C=C\C/C=C\CCCC(=O)O` [Arachidonic acid, arachidonic acid], for which, in the test on male rabbits (twice a day for one week), the “Grown fur length Test side a', Average” value is given as 7.561^*2 and the “Difference b, Average” value stood at 0.78. This compound also had a half-maximal inhibitory concentration (IC50) in test [1] of 150 µM.

Regarding `CCCCCCCC(=O)O` [n-Caprylic acid, n-caprylic acid], in the test on male rabbits (twice a day for one week), the “Grown fur length Test side a', Average” value is reported as 5.38^*2 and the “Difference b, Average” value is 0.32. The half-inhibitory concentration (IC50) in test [1] was 1700 µM.

Turning to `CCCCCC/C=C\CCCCCCCC(=O)O` [Palmitoleic acid, palmitoleic acid], in the test with male rabbits (twice a day for one week), the “Grown fur length Test side a', Average” value is given as 8.051^*2 and the “Difference b, Average” value is recorded as 0.862. Moreover, in test [1], the concentration for half-maximal inhibition (IC50) came to 180 µM.

Consider `CCCCCCCC/C=C\CCCCCCCC(=O)O` [Oleic Acid, oleic acid], for which, in the test on male rabbits (twice a day for one week), the “Grown fur length Test side a', Average” value was 6.102^*2 and the “Difference b, Average” value is given as 0.626. The compound also registered an IC50 in test [1] of 320 µM.

Consider `CC/C=C\C/C=C\C/C=C\CCCCCCCC(=O)O` [Linolenic acid, linolenic acid], for which, in the test with male rabbits (twice a day for one week), the “Grown fur length Test side a', Average” value was 5.46^*2 and the “Difference b, Average” value amounted to 0.45.

`CCCCC/C=C\C/C=C\CCCCCCCC(=O)O` [Linoleic acid, linoleic acid]: in the test with male rabbits (twice a day, two week), the “Grown fur length Test side a', Average” value is listed as 9.98^*2 and the “Difference b, Average” value turned out to be 0.43. Besides, in test [1], the 50% inhibitory concentration (IC50) was found to be 180 µM.

Take `CCCCCCCCCCCC(=O)O` [Lauric acid, lauric acid]: in the test with male rabbits (twice a day for one week), the “Grown fur length Test side a', Average” value was 5.667^*2 and the “Difference b, Average” value was determined as 0.776. For the same compound, the IC50 in test [1] was determined as 600 µM.

For `CCCCCCCCCCCCCCCC(=O)O` [Palmitic acid, palmitic acid], in the test with male rabbits (twice a day for one week), the “Grown fur length Test side a', Average” value is given as 6.056^*2 and the “Difference b, Average” value is recorded as 0.958. In test [1], this compound gave a concentration for half-maximal inhibition (IC50) of 300 µM.

For `CCCCCCCCCCCCCC(=O)O` [Myristic acid, myristic acid], in the test with male rabbits (twice a day for one week), the “Grown fur length Test side a', Average” value is reported as 6.583^*2 and the “Difference b, Average” value is recorded as 0.661. In test [1], half-maximal inhibition (IC50) was put at 1800 µM.

For the compound `CCC=CC=CC=CC=CCCCCCCCC(=O)O` [Parinaric acid, parinaric acid], in the test on male rabbits (twice a day for one week), the “Grown fur length Test side a', Average” value is given as 6.83^*2 and the “Difference b, Average” value was found to be 0.60. Further, in test [1], the midpoint of inhibition, the IC50, lay at 1100 µM.

For `CCCCCCCCCC(=O)O` [n-Capric acid, n-capric acid], in the test with male rabbits (twice a day for one week), the “Grown fur length Test side a', Average” value is reported as 7.542^*2 and the “Difference b, Average” value is recorded as 0.557. The same compound showed an IC50 in test [1] of 500 µM.

Turning to `CCCCCCCCCCC/C=C\CCCCC(=O)O` [Petroselinic acid, petroselinic acid], in the test on male rabbits (twice a day for one week), the “Grown fur length Test side a', Average” value is recorded as 6.66^*2 and the “Difference b, Average” value is listed as 0.50. Besides, the half-maximal inhibitory concentration (IC50) in test [1] was 280 µM.
